Earlier results, collected in paper PMC7001544 (JHEP Reports, 2019).

**Q.** Which “effect on internalization and infection of HBV” value (HBV) does the source give for `Cc1c(C)c2c(c(C)c1O)CCC(C)(COc1ccc(CC3SC(=O)NC3=O)cc1)O2` (centres unmarked) [troglitazone] here?
**A.** interfere with internalization and infection of HBV

**Q.** What about the “effect on NTCP oligomerization” value (NTCP) of the same molecule?
**A.** prevent NTCP oligomerization
